Reference: ChEMBL document CHEMBL3526078, “Pharmacokinetics and hepatic uptake of eltrombopag, a novel platelet-increasing agent” (Drug Metab Dispos, 2011)
≈ marks a conversion by molar mass, not a printed value.

Assays:
Hepatocyte [1] = experiment: Drug uptake in mouse hepatocytes in presence of rifampicin OATP inhibitor; type: ADME, cell-based
[2] = Drug metabolism in human feces assessed as oxidized metabolites at 50 mg, po single dose; type: ADME, organism-based; conditions: in vivo
Hepatocyte [3] = experiment: Drug uptake in mouse hepatocytes in presence of carbonyl cyanide-para-trifluoromethoxyphenylhydrazone ATP depletor; type: ADME, cell-based
[4] = molecular target: T1, Organic cation/carnitine transporter 2 (Homo sapiens, UniProt O76082); experiment: Inhibition of OCTN2-mediated [14C]carnitine uptake in human OCTN2 expressing HEK293/PDZK1 cells by scintillation counting; type: cell-based
T1 sequence (O76082 whole entry): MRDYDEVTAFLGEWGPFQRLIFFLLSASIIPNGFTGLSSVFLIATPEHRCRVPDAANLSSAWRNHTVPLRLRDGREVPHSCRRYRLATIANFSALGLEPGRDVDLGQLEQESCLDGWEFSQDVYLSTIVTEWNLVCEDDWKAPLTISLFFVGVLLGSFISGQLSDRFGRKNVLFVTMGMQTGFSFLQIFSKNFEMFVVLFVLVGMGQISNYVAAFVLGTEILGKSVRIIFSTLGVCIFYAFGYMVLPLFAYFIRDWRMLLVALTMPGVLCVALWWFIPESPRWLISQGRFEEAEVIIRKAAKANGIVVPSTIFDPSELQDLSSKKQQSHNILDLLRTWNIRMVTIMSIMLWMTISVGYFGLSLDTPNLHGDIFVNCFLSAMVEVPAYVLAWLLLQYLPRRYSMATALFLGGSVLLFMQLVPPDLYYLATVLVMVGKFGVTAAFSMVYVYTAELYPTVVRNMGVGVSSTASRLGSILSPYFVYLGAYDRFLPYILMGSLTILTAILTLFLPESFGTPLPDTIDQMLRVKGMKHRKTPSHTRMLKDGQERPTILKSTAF

Hepatocyte [5] = experiment: Drug uptake in mouse hepatocytes in presence of quinidine; type: ADME, cell-based
[6] = Clearance in Sprague-Dawley rat urine at 1 mg/kg, iv; type: ADME, organism-based; design: dose 1 mg/kg, route intravenous
[7] = Distribution volume to the central compartment in Sprague-Dawley rat urine at 1 mg/kg, iv; type: ADME, organism-based; design: dose 1 mg/kg, route intravenous; conditions: read-out: Vc
Hepatocyte [8] = experiment: Drug uptake in mouse hepatocytes in presence of taurocholate OATP inhibitor; type: ADME, cell-based
[9] = Drug excretion in Sprague-Dawley rat urine assessed as unchanged compound level at 1 mg/kg, iv for 72 hrs; type: ADME, organism-based; design: dose 1 mg/kg, route intravenous; conditions: read-out: Drug excretion
[10] = Volume of distribution at steady state in Sprague-Dawley rat at 1 mg/kg, iv; type: ADME, organism-based; design: dose 1 mg/kg, route intravenous; conditions: in vivo, read-out: Vdss
[11] = Drug metabolism in human urine assessed as oxidized metabolites at 50 mg, po single dose; type: ADME, organism-based; conditions: in vivo
[12] = Solubility of the compound; type: physicochemical
[13] = Drug excretion in Sprague-Dawley rat bile assessed as unchanged compound level at 1 mg/kg, iv for 72 hrs; type: ADME, organism-based; design: dose 1 mg/kg, route intravenous; conditions: read-out: Drug excretion
[14] = Maximum plasma concentration in mouse at 1 mg/kg, iv; type: ADME, organism-based; design: dose 1 mg/kg, route intravenous
[15] = Total clearance in pdzk1(-/-) mouse at 1 mg/kg, iv; type: ADME, organism-based; design: dose 1 mg/kg, route intravenous; conditions: in vivo
Liver [16] = experiment: Drug uptake in mouse liver at 1 mg/kg, iv in presence of 30 umol/kg TPeA; type: ADME, organism-based; design: dose 1 mg/kg, route intravenous; conditions: in vivo
Hepatocyte [17] = experiment: Drug uptake in mouse hepatocytes in presence of rotenone ATP depletor; type: ADME, cell-based
Kidney = experiment: Drug uptake in mouse kidney at 1 mg/kg, iv in presence of 30 umol/kg TPeA; type: ADME, organism-based; design: dose 1 mg/kg, route intravenous; conditions: in vivo
Liver [18] = experiment: Drug uptake in mouse liver at 1 mg/kg, iv in presence of rifampicin OATP inhibitor; type: ADME, organism-based; design: dose 1 mg/kg, route intravenous; conditions: in vivo
Hepatocyte [19] = experiment: Drug uptake in mouse hepatocytes in presence of verapamil; type: ADME, cell-based
Hepatocyte [20] = experiment: Drug uptake in mouse hepatocytes at pH 7.4; type: ADME, cell-based
Hepatocyte [21] = experiment: Drug uptake in mouse hepatocytes in absence of Na+; type: ADME, cell-based
Hepatocyte [22] = experiment: Drug uptake in mouse hepatocytes in presence of phenylalanine; type: ADME, cell-based

Drug uptake (Hepatocyte [1]): Not Active
Drug excretion [2]: 59%
Drug uptake (Hepatocyte [3]): Not Active
inhibition (INH) [4]: Not Active
Drug uptake (Hepatocyte [5]): Not Active
CL renal [6]: < 0.00117 mL/min/kg
Vd [7]: 0.0411 L/kg
Drug uptake (Hepatocyte [8]): Not Active
dose excreted at 72 h [9]: < 0.02%
Vd [10]: 0.287 L/kg
Drug excretion [11]: 31%
solubility [12]: 200 µM (≈ 88.5 µg/mL)
dose excreted at 72 h [13]: 40%
Cmax [14]: 40 µM
clearance [15]: 0.92 mL/min/kg
Drug uptake (Liver [16]): Not Active
Drug uptake (Hepatocyte [17]): Not Active
Drug uptake (Kidney): Active
Drug uptake (Liver [18]): Not Active
Drug uptake (Hepatocyte [19]): Not Active
Drug uptake (Hepatocyte [20]): Active
Drug uptake (Hepatocyte [21]): Active
Drug uptake (Hepatocyte [22]): Not Active
SMILES: CC1=NN(c2ccc(C)c(C)c2)C(=O)/C1=N\Nc1cccc(-c2cccc(C(=O)O)c2)c1O [ELTROMBOPAG]
